Test results: US11337964B2, “Isoindoline derivative, pharmaceutical composition and use thereof” (Kangpu Biopharmaceuticals, Ltd., priority 2017, dated 2022)

What was measured:
Type in all cases: biochemical
Conditions in all cases: FAM-cAMP substrate, 30 minutes at room temperature
PDE4A1A = biological target: T1, PDE4A1A (Homo sapiens, UniProt P27815); test: PDE4 activity inhibition assay, PDE4A1A
T1 construct: purchased BPS 60040
Procedure: (§1) The IC50 value of the inhibitory effect of the compound on PDE4A1A, PDE4B1 and PDE4D3 was tested.
(§2) Positive compound: Trequinsin (Sigma, Cat. No. T2057).
(§3) Equipment: Wallac Victor Multi-label counter (Perkin Elmer).
(§4) I. Preparing 1× reaction liquid and termination liquid;
(§5) II. PDE enzymatic reaction; • 1) The PDE was dissolved in 1× reaction solution to form 2× enzyme solution. • 2) FAM-cAMP was dissolved in 1× reaction solution to form 2× substrate solution. • 3) Echo 550 was used to transfer the corresponding volume of the compound in DMSO solution to the reaction plate. • 4) 2× enzyme solution was added into the corresponding well of the reaction plate and incubated with the compound solution at room temperature for 15 minutes. • 5) 2× substrate solution was added into the corresponding well of the reaction plate to initiate the reaction. • 6) Reaction plate was incubated at room temperature for 30 minutes and terminated by adding termination liquid, then incubated at room temperature for 60 minutes.
(§6) The inhibition rate was calculated by Excel; IC50 was calculated by GraphPad Prism.

PDE4B1 = biological target: T2, PDE4B1 (Homo sapiens, UniProt Q07343); test: PDE4 activity inhibition assay, PDE4B1
T2 construct: purchased BPS 60041
Procedure: as §1, §2, §3, §4, §5, §6

PDE4D3 = biological target: T3, PDE4D3 (Homo sapiens, UniProt Q08499); test: PDE4 activity inhibition assay, PDE4D3
T3 construct: purchased BPS 60046
Procedure: as §1, §2, §3, §4, §5, §6

T3 sequence (Q08499 1-673 isoform Q08499-2): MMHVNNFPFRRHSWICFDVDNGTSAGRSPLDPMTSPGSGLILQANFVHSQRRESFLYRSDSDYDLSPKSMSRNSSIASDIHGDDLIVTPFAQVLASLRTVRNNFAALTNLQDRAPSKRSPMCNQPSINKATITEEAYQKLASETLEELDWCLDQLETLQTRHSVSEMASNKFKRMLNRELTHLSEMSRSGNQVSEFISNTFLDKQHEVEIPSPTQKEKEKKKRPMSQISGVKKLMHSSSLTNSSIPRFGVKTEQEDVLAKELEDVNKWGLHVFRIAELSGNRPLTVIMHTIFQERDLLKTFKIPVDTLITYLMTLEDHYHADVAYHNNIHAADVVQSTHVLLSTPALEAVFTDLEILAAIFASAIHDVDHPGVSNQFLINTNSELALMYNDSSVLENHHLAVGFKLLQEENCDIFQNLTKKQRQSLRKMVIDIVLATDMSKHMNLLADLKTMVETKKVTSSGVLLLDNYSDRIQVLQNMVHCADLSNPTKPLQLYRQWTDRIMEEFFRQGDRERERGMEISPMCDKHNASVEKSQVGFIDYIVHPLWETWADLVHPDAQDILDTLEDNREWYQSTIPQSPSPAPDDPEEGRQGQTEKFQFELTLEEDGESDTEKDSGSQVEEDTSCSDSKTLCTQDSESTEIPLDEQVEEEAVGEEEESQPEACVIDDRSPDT
T1 sequence (P27815 1-647 isoform P27815-4): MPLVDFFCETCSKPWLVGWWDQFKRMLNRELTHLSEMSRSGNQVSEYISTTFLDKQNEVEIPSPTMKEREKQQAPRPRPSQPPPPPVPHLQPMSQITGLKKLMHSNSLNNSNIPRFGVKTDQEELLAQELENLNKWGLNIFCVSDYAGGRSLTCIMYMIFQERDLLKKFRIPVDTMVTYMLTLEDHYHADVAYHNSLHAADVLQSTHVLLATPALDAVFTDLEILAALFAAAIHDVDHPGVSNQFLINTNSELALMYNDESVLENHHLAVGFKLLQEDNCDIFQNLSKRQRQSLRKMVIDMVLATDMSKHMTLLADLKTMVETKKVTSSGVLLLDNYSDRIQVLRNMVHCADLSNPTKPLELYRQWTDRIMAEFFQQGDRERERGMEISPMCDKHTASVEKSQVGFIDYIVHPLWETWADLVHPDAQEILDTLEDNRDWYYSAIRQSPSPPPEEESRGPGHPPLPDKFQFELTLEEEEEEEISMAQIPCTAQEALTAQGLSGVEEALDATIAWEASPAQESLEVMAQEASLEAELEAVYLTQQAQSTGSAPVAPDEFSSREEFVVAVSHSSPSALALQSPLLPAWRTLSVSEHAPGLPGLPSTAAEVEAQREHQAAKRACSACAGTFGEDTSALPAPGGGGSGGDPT
T2 sequence (Q07343 whole entry): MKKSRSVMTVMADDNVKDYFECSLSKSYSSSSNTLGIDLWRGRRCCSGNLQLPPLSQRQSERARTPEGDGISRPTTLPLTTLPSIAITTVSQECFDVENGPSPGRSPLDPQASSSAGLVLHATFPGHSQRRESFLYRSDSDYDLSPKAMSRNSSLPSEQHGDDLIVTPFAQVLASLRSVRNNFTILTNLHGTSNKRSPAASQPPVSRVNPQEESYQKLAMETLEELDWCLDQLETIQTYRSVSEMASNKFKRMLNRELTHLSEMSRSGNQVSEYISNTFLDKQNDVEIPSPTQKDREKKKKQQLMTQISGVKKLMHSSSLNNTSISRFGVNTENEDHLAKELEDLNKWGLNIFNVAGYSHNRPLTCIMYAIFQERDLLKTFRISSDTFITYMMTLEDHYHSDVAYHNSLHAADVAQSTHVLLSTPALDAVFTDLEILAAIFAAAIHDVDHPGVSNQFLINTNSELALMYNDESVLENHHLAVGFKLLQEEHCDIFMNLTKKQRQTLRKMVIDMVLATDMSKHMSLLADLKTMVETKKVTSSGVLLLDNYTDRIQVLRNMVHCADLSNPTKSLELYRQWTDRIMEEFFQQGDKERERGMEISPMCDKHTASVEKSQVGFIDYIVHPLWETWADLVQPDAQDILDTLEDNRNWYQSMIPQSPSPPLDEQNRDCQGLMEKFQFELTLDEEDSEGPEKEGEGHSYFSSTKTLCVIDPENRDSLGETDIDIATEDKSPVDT

IC50 (PDE4A1A) [nM] | IC50 (PDE4B1) [nM] | IC50 (PDE4D3) [nM] | SMILES
30 | 55 | 20 | CCOc1nc([C@H](CS(C)(=O)=O)N2C(=O)c3cccc(NC(C)=O)c3C2=O)ccc1OC [Compound 703, (R)—N-(2-(1-(6-ethoxy-5-methoxypyridin-2-yl)-2-(methylsulfonyl)ethyl)-1,3-dioxoisoindolin-4-yl)acetamide]
6.5 | 18 | 4 | CCOc1nc([C@H](CS(C)(=O)=O)N2C(=O)c3c(F)ccc(NC(C)=O)c3C2=O)ccc1OC [Compound 706, (R)—N-(2-(1-(6-ethoxy-5-methoxypyridin-2-yl)-2-(methylsulfonyl)ethyl)-7-fluoro-1,3-dioxoisoindolin-4-yl)acetamide]
17 | 32 | 11 | CCOc1nc([C@H](CS(C)(=O)=O)N2C(=O)c3cc(F)cc(NC(C)=O)c3C2=O)ccc1OC [Compound 709, (R)—N-(2-(1-(6-ethoxy-5-methoxypyridin-2-yl)-2-(methylsulfonyl)ethyl)-6-fluoro-1,3-dioxoisoindolin-4-yl)acetamide]
1.1 | 5.1 | 2 | [2H]C([2H])([2H])Oc1ccc([C@@H](CS(C)(=O)=O)N2C(=O)c3cccc(NC(C)=O)c3C2=O)nc1OCC [Compound 711, (S)—N-(2-(1-(6-ethoxy-5-d3-methoxypyridin-2-yl)-2-(methylsulfonyl)ethyl)-1,3-dioxoisoindolin-4-yl)acetamide]
32.6 | 82.8 | 29 | [2H]C([2H])([2H])Oc1ccc([C@H](CS(C)(=O)=O)N2C(=O)c3cccc(NC(C)=O)c3C2=O)nc1OCC [Compound 712, (R)—N-(2-(1-(6-ethoxy-5-d3-methoxypyridin-2-yl)-2-(methylsulfonyl)ethyl)-1,3-dioxoisoindolin-4-yl)acetamide]
0.9 | 3 | 0.7 | [2H]C([2H])([2H])Oc1ccc([C@@H](CS(C)(=O)=O)N2C(=O)c3c(F)ccc(NC(C)=O)c3C2=O)nc1OCC [Compound 718, (S)—N-(2-(1-(6-ethoxy-5-d3-methoxypyridin-2-yl)-2-(methylsulfonyl)ethyl)-7-fluoro-1,3-dioxoisoindolin-4-yl)acetamide]
15.3 | 57.8 | 15.4 | [2H]C([2H])([2H])Oc1ccc([C@H](CS(C)(=O)=O)N2C(=O)c3c(F)ccc(NC(C)=O)c3C2=O)nc1OCC [Compound 719, (R)—N-(2-(1-(6-ethoxy-5-d3-methoxypyridin-2-yl)-2-(methylsulfonyl)ethyl)-7-fluoro-1,3-dioxoisoindolin-4-yl)acetamide]
2.3 | 5.7 | 3.1 | [2H]C([2H])([2H])Oc1ccc([C@@H](CS(C)(=O)=O)N2C(=O)c3cc(F)cc(NC(C)=O)c3C2=O)nc1OCC [Compound 724, (S)—N-(2-(1-(6-ethoxy-5-d3-methoxypyridin-2-yl)-2-(methylsulfonyl)ethyl)-6-fluoro-1,3-dioxoisoindolin-4-yl)acetamide]
32.1 | 93 | 33.5 | [2H]C([2H])([2H])Oc1ccc([C@H](CS(C)(=O)=O)N2C(=O)c3cc(F)cc(NC(C)=O)c3C2=O)nc1OCC [Compound 725, (R)—N-(2-(1-(6-ethoxy-5-d3-methoxypyridin-2-yl)-2-(methylsulfonyl)ethyl)-6-fluoro-1,3-dioxoisoindolin-4-yl)acetamide]
0.6 | 1.6 | 0.4 | CCOc1nc(C(CS(C)(=O)=O)N2C(=O)c3c(Cl)ccc(NC(C)=O)c3C2=O)ccc1OC (stereo not drawn) [Compound 728, N-(7-chloro-2-(1-(6-ethoxy-5-methoxypyridin-2-yl)-2-(methylsulfonyl)ethyl)-1,3-dioxoisoindolin-4-yl)acetamide]
0.8 | 2.4 | 1.1 | CCOc1nc([C@@H](CS(C)(=O)=O)N2C(=O)c3c(C#N)ccc(NC(C)=O)c3C2=O)ccc1OC [Compound 732, (S)—N-(7-cyano-2-(1-(6-ethoxy-5-methoxypyridin-2-yl)-2-(methylsulfonyl)ethyl)-1,3-dioxoisoindolin-4-yl)acetamide]
5.6 | 17.8 | 13 | CCOc1nc([C@@H](CS(C)(=O)=O)N2C(=O)c3cc(C#N)cc(NC(C)=O)c3C2=O)ccc1OC [Compound 734, (S)—N-(6-cyano-2-(1-(6-ethoxy-5-methoxypyridin-2-yl)-2-(methylsulfonyl)ethyl)-1,3-dioxoisoindolin-4-yl)acetamide]
51.8 | 136 | 35.9 | CCOc1nc(C(CS(C)(=O)=O)N2C(=O)c3cccc(NS(C)(=O)=O)c3C2=O)ccc1OC (stereo not drawn) [Compound 737, N-(2-(1-(6-ethoxy-5-methoxypyridin-2-yl)-2-(methylsulfonyl)ethyl)-1,3-dioxoisoindolin-4-yl)methanesulfonamide]
14.5 | 36.3 | 10.9 | CCOc1nc(C(CS(C)(=O)=O)N2C(=O)c3cccc(NC(=O)CO)c3C2=O)ccc1OC (stereo not drawn) [Compound 739, N-(2-(1-(6-ethoxy-5-methoxypyridin-2-yl)-2-(methylsulfonyl)ethyl)-1,3-dioxoisoindolin-4-yl)-2-hydroxyacetamide]
2.4 | 6.2 | 2.6 | CCOc1nc(C(CS(C)(=O)=O)N2C(=O)c3cccc(NC(=O)COCc4ccccc4)c3C2=O)ccc1OC (stereo not drawn) [Compound 742, 2-(benzyloxy)-N-(2-(1-(6-ethoxy-5-methoxypyridin-2-yl)-2-(methylsulfonyl)ethyl)-1,3-dioxoisoindolin-4-yl)acetamide]
1.1 | 2.6 | 1.2 | CCOc1nc(C(CS(C)(=O)=O)N2C(=O)c3c(F)ccc(NC(=O)COC)c3C2=O)ccc1OC (stereo not drawn) [Compound 745, N-(2-(1-(6-ethoxy-5-methoxypyridin-2-yl)-2-(methylsulfonyl)ethyl)-7-fluoro-1,3-dioxoisoindolin-4-yl)-2-methoxyacetamide]
2.8 | 7.9 | 3.3 | CCOc1nc(C(CS(C)(=O)=O)N2C(=O)c3cccc(NC(=O)COC)c3C2=O)ccc1OC (stereo not drawn) [Compound 748, N-(2-(1-(6-ethoxy-5-methoxypyridin-2-yl)-2-(methylsulfonyl)ethyl)-1,3-dioxoisoindolin-4-yl)-2-methoxyacetamide]
5 | 9.9 | 3.1 | CCOc1nc(C(CS(C)(=O)=O)N2C(=O)c3c(F)ccc(NC(=O)CN(C)C)c3C2=O)ccc1OC (stereo not drawn) [Compound 751, 2-(dimethylamino)-N-(2-(1-(6-ethoxy-5-methoxypyridin-2-yl)-2-(methylsulfonyl)ethyl)-7-fluoro-1,3-dioxoisoindolin-4-yl)acetamide]
10.6 | 21.9 | 8 | CCOc1nc(C(CS(C)(=O)=O)N2C(=O)c3cccc(NC(=O)CN(C)C)c3C2=O)ccc1OC (stereo not drawn) [Compound 754, 2-(dimethylamino)-N-(2-(1-(6-ethoxy-5-methoxypyridin-2-yl)-2-(methylsulfonyl)ethyl)-1,3-dioxoisoindolin-4-yl)acetamide]
2.5 | 4.5 | 1.8 | CCOc1nc(C(CS(C)(=O)=O)N2C(=O)c3c(F)ccc(NC(=O)CC(C)C)c3C2=O)ccc1OC (stereo not drawn) [Compound 757, N-(2-(1-(6-ethoxy-5-methoxypyridin-2-yl)-2-(methylsulfonyl)ethyl)-7-fluoro-1,3-dioxoisoindolin-4-yl)-3-methylbutanamide]
3.1 | 4.7 | 1.3 | CCOc1nc(C(CS(C)(=O)=O)N2C(=O)c3cccc(NC(=O)CC(C)C)c3C2=O)ccc1OC (stereo not drawn) [Compound 760, N-(2-(1-(6-ethoxy-5-methoxypyridin-2-yl)-2-(methylsulfonyl)ethyl)-1,3-dioxoisoindolin-4-yl)-3-methylbutanamide]
1.6 | 1.9 | 1 | CCOc1nc([C@@H](CS(C)(=O)=O)N2C(=O)c3c(F)ccc(NC(=O)C4CC4)c3C2=O)ccc1OC [Compound 764, (S)—N-(2-(1-(6-ethoxy-5-methoxypyridin-2-yl)-2-(methylsulfonyl)ethyl)-7-fluoro-1,3-dioxoisoindolin-4-yl)cyclopropanecarboxamide]
1.3 | 2.2 | 1 | [2H]C([2H])([2H])Oc1ccc([C@@H](CS(C)(=O)=O)N2C(=O)c3c(F)ccc(NC(=O)C4CC4)c3C2=O)nc1OCC [Compound 767, (S)—N-(2-(1-(6-ethoxy-5-d3-methoxypyridin-2-yl)-2-(methylsulfonyl)ethyl)-7-fluoro-1,3-dioxoisoindolin-4-yl)cyclopropanecarboxamide]
1.6 | 1.8 | 1.5 | CCOc1nc([C@@H](CS(C)(=O)=O)N2C(=O)c3cccc(NC(=O)C4CC4)c3C2=O)ccc1OC [Compound 770, (S)—N-(2-(1-(6-ethoxy-5-methoxypyridin-2-yl)-2-(methylsulfonyl)ethyl)-1,3-dioxoisoindolin-4-yl)cyclopropanecarboxamide]
